Here are results for 3 molecules from patent US20080004329A1, “Pharmaceutical compositions of ropinirole and methods of use thereof” (priority 2006, published 2008).

The subject of one data set is guinea pigs. The experiment in a line: Skin sensitization, induction and challenge. Format: in vivo. Conditions: guinea pigs induced (with and without Freund's Complete Adjuvant) and challenged with 5% ropinirole HCl.
For data set [1] the following is noted: water at 20° C.; cited from earlier work.
Data set [2] can be described thus: In vitro permeation, Franz cells, cadaver skin finite dose technique (Example 1). The format is in vitro ADME, human. The method, then:
The in vitro human cadaver skin model has proven to be a valuable tool for the study of percutaneous absorption and the determination of topically applied drugs. The model uses human cadaver skin mounted in specially designed diffusion cells that allow the skin to be maintained at a temperature and humidity that match typical in vivo conditions (Franz, T. J., “Percutaneous absorption: on the relevance of in vitro data,” J. Invest Dermatol 64:190-195 (1975)). A finite dose (for example: 4-7 mg/cm^2) of formulation is applied to the outer surface of the skin and drug absorption is measured by monitoring its rate of appearance in the receptor solution bathing the inner surface of the skin. Data defining total absorption, rate of absorption, as well as skin content can be accurately determined in this model. The method has historic precedent for accurately predicting in vivo percutaneous absorption kinetics (Franz, T. J., “The finite dose technique as a valid in vitro model for the study of percutaneous absorption in man,” In: Skin: Drug Application and Evaluation of Environmental Hazards, Current Problems in Dermatology, vol. 7, G. Simon, Z. Paster, M Klingberg, M. Kaye (Eds), Basel, Switzerland, S. Karger, pages 58-68 (1978)).
Percutaneous absorption was measured using the in vitro cadaver skin finite dose technique. Cryo-preserved, human cadaver trunk skin was obtained from a skin bank and stored in water-impermeable plastic bags at <−70° C. until used.
Prior to the experiment, skin was removed from the bag, placed in approximately 37° C. water for five minutes, and then cut into sections large enough to fit on 1 cm^2 Franz Cells (Crown Glass Co., Somerville, N.J.). Briefly, skin samples were prepared as follows. A small volume of phosphate buffered saline (PBS) was used to cover the bottom of the Petri dishes. Skin disks generally depleted of fat layers were placed in the Petri dishes for hydration. A Stadie-Riggs manual tissue microtome was used for slicing excised skin samples. Approximately 2 mL of PBS was placed into the middle cavity of the microtome as slicing lubricant. Skin disks were placed, dermal side up, into the middle cavity of the microtome. Filter paper was soaked with PBS, inserted in the cavity just above the skin disk. The filter paper prevented the dermis from sliding onto the top of the cutting block and helped to insure more precise cutting. When all three blades of the microtome were assembled, the microtome was turned into the upright position. Using a regular and careful sawing motion the skin tissue was sliced in cross-section. The skin tissue slice was removed with the tweezers and placed in the Petri dish for hydration. Each skin slice was wrapped in Parafilm® (Pechiney Plastic Packaging, Inc., Chicago, Ill.) laboratory film and placed in water-impermeable plastic bags. Skin samples were identified by the donor and the provider code. If further storage was necessary, the skin slices were stored in the freezer at −20° C. until further use.
The epidermal cell (chimney) was left open to ambient laboratory conditions. The dermal cell was filled with receptor solution. Receptor solution for in vitro skin permeations was typically an isotonic saline at physiological pH. The receptor solution may also contain a drug solubilizer, for example, to increase lipophilic drug solubility in the receptor phase. […]

The nature of data set [3]: Titration with NaOH for the experimental ionization profile in a hydroalcoholic base. The format is physicochemical. Conditions: hydroalcoholic vehicle (ethanol 45%, propylene glycol 20%, water 25.58%), not gellified; read-out: apparent pKa from the experimental ionization profile. The source says:
The following formulation was used for titration to determine the experimental ionization profile of ropinirole in a hydroalcoholic base: Ropinirole hydrochloride* 3.42% w/w, myristyl alcohol 1.00% w/w, diethylene glycol monoethylether 5.00% w/w, propylene glycol 20.00% w/w, absolute ethanol 45.00% w/w, and purified water 25.58% w/w (total 100; * ropinirole HCl 3.42% (MW=296.84) corresponds to ropinirole free base 3% (MW=260.38), ratio 1.14). The formulation was not gellified.
The ropinirole HC1 solution was titrated with NaOH 0.1 M solution. The solvent was the same as the formulation, in order to keep a constant composition. NaOH was chosen so as to limit dilution of the titrated formulation; but no dilution correction was made. The formulation was titrated by 0.5-1 mL increments where the pH change was small. Increments were reduced to 0.1 mL near the equivalence point. The pH was monitored with a glass electrode (Mettler Toledo InLab 432, Mettler-Toledo, Inc., Columbus, Ohio), and recorded with a Mettler Toledo MP. 230 pH meter (Mettler-Toledo, Inc., Columbus, Ohio).
Based on the titration curve, the ionization rate [BH] was calculated according to Henderson-Hasselbalch equation for weak base: […]

The conditions of data set [4]: human.
Procedure: In vitro data can be extrapolated to in vivo conditions in order to evaluate the gel dose for bioequivalence to ropinirole oral absorption. […] Therefore, an intermediate oral dose of 6 mg/day with BA=50% delivers a systemic dose of 3 mg/day. […] This corresponds to a daily dose of 9.5 mg ropinirole HCl (equivalent to 8.3 mg free base).
Based on these pharmacokinetic parameters, the daily input rate can be estimated using the following equation: Ka=CL×Cp, where Ka is the daily input rate (absorption rate), CL the drug plasma clearance, and Cp the plasma concentration.
Scaled to the clinical daily input rate, the required skin surface can be determined using the following equation: S=Ka/JSS, wherein S is the application skin surface area, and JSS is the in vitro steady-state drug flux.
Alternatively, the gel amount could be increased by 3.7 times (1 g instead of 0.3 g), and be applied to a 3.7 times larger skin area (185 cm instead of 50 cm^2).
This corresponds to a daily dose of 15 mg ropinirole HCl (equivalent to 13 mg free base).
The conditions of data set [5]: cited from earlier work.
The mark [6] stands for this setting: EtOH(45)/Water(40)/PG(10), 5% drug.

As to `CCCN(CCC)CCc1cccc2c1CC(=O)N2.Cl` [Ropinirole hydrochloride, 4-[2-(dipropylamino)-ethyl]-1,3-dihydro-2H-indol-2-one monohydrochloride], the sensitization category result in the data set on guinea pigs is “mild sensitizer”. Also, the solubility in water in data set [1] is 133 mg/mL. For the same molecule, in data set [2] (setting [6]), the “skin permeation characteristics” value was “did not permeate well”.

As for `CCCN(CCC)CCc1cccc2c1CC(=O)N2` [ropinirole free base], the “skin permeation characteristics” value in data set [2] (setting [6]) is given as “good permeation characteristics”. Besides, the peak flux in data set [2] (EtOH(45)/Water(40)/PG(10), 5% drug, pH 9.5-10.0) worked out at 3.5 μg/cm^2/hr. In addition, the “ropinirole remained in the epidermis” value in data set [2] (after 48 hours) is “Approximately 20%”. Moreover, the “Bioavailability in the receptor chamber fluid” value in data set [2] (percent dose recovered in receptor fluid) is given as “about 40%”.

One may read the pKa as the pH at which an ionisable group is half protonated. Take `CCCN(CCC)CCc1cccc2c1CC(=O)N2` [ropinirole]: the pKa in data set [3] was 8. Also, in data set [4], the “Ka, daily input rate (absorption rate), Ka=CL×Cp” value was 347.8 µg/h. Moreover, in data set [5] (REQUIP Prescribing Information), the Body clearance result was “about 47 L/h”. In data set [5] (repeated oral administration, 6 mg/day in 3 divided doses, steady state (Taylor et al.)), the “maximum plasma levels (Cmax)” value was 7.4 ng/mL.
